Data reported in patent publication US20050002922A1, “Use of secretin and secretin analogs to treat affective disorders” (priority 2003, published 2005).

Legend:
[1] = test system: rats (spatial learning and memory)
From the text: The M swim maze was developed to test spatial learning and memory (e.g., functional memory). The animal has no visual or spatial cues in the pool and must rely on extra-maze cues (e.g., light setup outside the pool that can be seen by the swimming animal). Through a series of trials a rat develops “place learning” or knowledge about the position of the escape platform based upon the extra-maze cues. The platform can be moved to a different arm of the M configuration each day, combining spatial memory with working memory. This paradigm involves extinction of the prior memory and resolution of a new spatial problem.
Test Animals. A total of 40 male rats were used.
Behavioral Procedures and Data Analysis. Rats (10/group) were treated by tail vein injection with vehicle, 0.4 μg/kg/day, 4.0 μg/kg/day, and 40 μg/kg/day secretin on post natal day 25 through postnatal day 70 (45 days). Learning and memory was evaluated in a water M-maze. The evaluation consisted of 10 trials/day for each animal on 4 successive days to assess short-term memory. The goal was to escape from the maze via a platform located on the lighted arm of an M-shaped maze. After placement of the animal in the central arm of the M-shaped maze, the goal side was varied for each animal at each trial according to a predetermined computer generated sequence. The same animals were also tested 5 days after the initial testing to assess long-term memory. On that day each animal were allowed 10 trials in the maze and time to escape was measured. Significance was calculated versus the control group value for the same day of testing using a T-test.

[2] = test system: Fos protein expression; experiment: Brain gene expression measured by Fos protein expression; assay type: in vivo, rat
[3] = test system: rats (fear-potentiated startle); experiment: Fear-potentiated startle paradigm in rats; assay type: in vivo, rat
Experimental: The conditioned stimulus (CS) was a 3.7 second light (80 lux) produced by an 8 W fluorescent bulb (100 msecond rise time) located 10 cm behind each cage. Luminosity was measured using a VWR light meter (Atlanta, Ga.). The US was a 0.5 second shock, delivered to the floorbars and produced by a shock generator (SGS-004; LeHigh Valley, Beltsville, Md.). Shock intensities (measured as in Cassella et al., Physiol Behav 36:1187-91, 1986) were 0.4 mA. The presentation and sequencing of all stimuli were under the control of the Macintosh G3 computer using custom-designed software (The Experimenter; Glassbeads Inc., Newton, Conn.).
The experiment was run in four replications.
Fear conditioning. On each of the next 2 days, rats were returned to the test chambers and 5 minutes later given the first of 10 light-footshock pairings. The 0.4 mA 0.5 second shock was delivered during the last 0.5 second of the 3.7 second light. The average intertrial interval (ITI) was 4 minutes (range, 3-5 minutes).

[4] = test system: rats (baseline acoustic startle); conditions: rat, in vivo, ip
Experimental: A total of 72 male Sprague-Dawley rats (Charles River, Portage, Mich.) weighing 350-450 g were used. Animals were maintained on a 12:12 hour light-dark cycle (lights on at 0700) with food and water continuously available. All rats were housed in group cages of four rats each in a temperature-controlled (24° C.) animal colony.
Animals were trained and tested in 8×15×15 cm Plexiglas® and wire-mesh cages. Each cage floor consisted of four 6.0 mm diameter stainless-steel bars spaced 18 mm apart. Each cage was suspended between compression springs within a steel frame and located within a custom-designed 90×70×70 cm ventilated sound-attenuating chamber. Background noise (60 dB wide-band) was provided by a General Radio Type 1390-B noise generator (Concord, Mass.) and delivered through high-frequency speakers (Radio Shack Supertweeter; Tandy, Fort Worth, Tex.) located 5 cm in front of each cage. Sound level measurements (sound pressure level) were made with a Bruel & Kjaer (Marlborough, Mass.) model 2235 sound-level meter (A scale; random input) with the microphone (Type 4176) located 7 cm from the center of the speaker (approximating the distance of the rat's ear from the speaker). […]

secretin
ability to learn and remember a spatial associative memory task ([1]; rat, in vivo, iv): does not impair
learning performance in water M-maze relative to controls ([1]; rats, 0.4 or 4.0 μg/kg/day i.v., after 4 training days, maintained after 5 day rest): improved in learning performance
minimum dose that improves functional memory in M swim maze ([1]; rats, i.v.): 0.4 µg/kg
dose giving peak change in Fos protein expression ([2]; i.p. or i.v.): 40 µg/kg
minimum dose to detect significant changes in brain gene expression (Fos protein) ([2]; i.v. or i.p.): 4 µg/kg
minimum dose possessing anxiolytic properties in fear-potentiated startle paradigm ([3]; i.p.): 3 µg/kg
effect on expression of fear-potentiated startle ([3]; i.p. 1-100 μg/kg immediately prior to testing): dose dependently impaired expression of fear-potentiated startle
dose giving greatest impairment of fear-potentiated startle ([3]; i.p. immediately prior to testing): 10 µg/kg
effect of higher doses on baseline startle [4]: tended to suppress baseline startle
